One test concerns P. acnes (ATCC6919). In words: Anti-inflammatory effect of peptides against intradermic inflammation caused by P. acnes in mice. The note with it: for anti-inflammatory effect against inflammation caused by P. acnes: vs PBS. Type of test: in vivo, Balb/c mice. As to the method:
Living bacterial cells of P. acnes were put in a deaerated physiological saline while keeping an anaerobic condition to prepare a suspension with the number of the living bacterial cells of P. acnes of 5×10^7 cells/ml, 1×10^8 cells/ml, or 5×10^8 cells/ml. The anaerobic condition was kept by spraying a nitrogen gas. The number of the living bacterial cells of P. acnes was calculated based on the assumption that OD measurement value of 0.98-1.02 at 550 nm measured by a spectrophotometer corresponds to 5×10^8 cells/ml, with reference to Ramstad S. et al., Photochem. Photobiol. Sci., 2006, 5, 66-72.
50 μl of the prepared suspension of P. acnes was intradermically injected into shaven abdominal midlines, neck portions, lumbar dorsal portions, tail root dorsal portions, and auricles of male Balb/c mice (9-10 weeks old). The inflammatory areas (major axis×minor axis: mm^2) at individual portions to which the suspension was injected intradermically were measured at predetermined times. Each group consisted of five individuals.
Accordingly, the anti-inflammatory effects of individual peptides were determined under the same conditions, i.e. by intradermically injecting 50 μl of P. acnes (5×10^8 cells/ml) into the abdominal midline and measuring the inflammatory area (mm^2) five days after the injection. FIG. 3 illustrates the procedure for examining the anti-inflammatory effect.
(§1) FIG. 3 is a drawing schematically illustrating the procedure for examining the anti-inflammatory effect. […] Then, P. acnes was intradermically injected into the abdominal midlines of the mice, and the inflammatory areas were measured 5 days after the injection (Day “23” in FIG. 3). Each group consisted of 10 mice. As Comparative Examples, there were prepared a group of mice to which PBS without PepA was administered and a group of mice to which PepB or PepC was administered instead of PepA, and P. acnes was injected into the groups similarly.
The anti-inflammatory effects of individual peptides were examined using an inflammation causing system under the same conditions as in Example 4 except that the peptides to be administered to mice before injection of P. acnes were changed from PepA, PepB, and PepC to PepA and PepD.

The test system of test [1] is acne-patient-derived P. acnes (patient strains 1-3). In words: Anti-inflammatory effect of PepA against inflammation caused by patient-derived P. acnes in mice. The note with it: for P (inflammatory area compared with control group given PBS): 5 days after injection. Type of test: in vivo. The protocol:
as §1
The anti-inflammatory effect of PepA was examined by the same procedure as in Example 5 except that bacterial cells of P. acnes to be injected into mice were the acne-patient-derived bacterial cells of P. acnes which were isolated in Example 6.
FIG. 7 is a graph showing the result of intradermically injecting, after immunization by PepA, the patient strains 1-3 (P1-P. acnes to P3-P. acnes) to the abdominal midlines of mice and measuring inflammatory areas of the mice 5 days after the injection.

[2] abbreviates: Example 4, 40 μg/50 μl intradermal, three times, area 5 days after P. acnes injection into abdominal midline.
Where [3] appears, read: Example 4, 40 μg/50 μl intradermal, three times, area 5 days after injection.
Where [4] appears, read: Example 5, same conditions as Example 4.

The values below come from US11020468B2, “Compositions, methods and therapies for administering antigen peptide” (priority 2010, dated 2021).

Turning to “AIQEKYGDDRERAG (Propionibacterium acnes) [PepA, residues 90-103 of P. acnes membrane protein AAT84059]”, the “P (inflammatory area compared with control group given PBS)” value in the test on P. acnes (ATCC6919) (setting [2]) was 0.00865; in the test on P. acnes (ATCC6919) (setting [4]), 0.0012; in test [1] (patient strain 1), 0.0252; in test [1] (patient strain 2), 0.0476; in test [1] (patient strain 3), 0.0237. Also, the “anti-inflammatory effect against inflammation caused by P. acnes” value (“anti-inflammatory effect … by P. acnes” below) in the test on P. acnes (ATCC6919) (setting [3]) and with P. acnes (ATCC6919) (setting [4]) was “statistically significantly reduced inflammatory area” throughout. In addition, the “anti-inflammatory effect against injection of patient strains” value in test [1] (each of patient strains 1-3, vs PBS) is recorded as “statistically significantly reducing an inflammatory area”.
Consider “GRKPDTNKRSWHRKASR [PepB, reference compound]”, for which the “P (inflammatory area compared with control group given PBS)” value in the test with P. acnes (ATCC6919) (setting [2]) is 1. Further, the “anti-inflammatory effect … by P. acnes” value with P. acnes (ATCC6919) (setting [3]) is on record as “do not exhibit the anti-inflammatory effect”.
For “IDQVREYRHRDDDDDEDPGEDG [PepC, reference compound]” the same measures were 0.1655 and “do not exhibit the anti-inflammatory effect”.
As for “KDADKDNPTYQKV (Propionibacterium acnes) [PepD, residues 260-272 of P. acnes membrane protein YP_056445]”, in the test with P. acnes (ATCC6919) (setting [4]), the “P (inflammatory area compared with control group given PBS)” value stood at 0.00175 and the “anti-inflammatory effect … by P. acnes” value is recorded as “statistically significantly reduced inflammatory area”.
